The values that follow come from patent publication US7803825B2, “Aminoalkylazole derivatives as histamine-3 antagonists” (Wyeth LLC, priority 2007, dated 2010).

Where a name gives a salt, the structure may show the parent alone. Some results are limits rather than exact numbers.

T1 sequence (Q9Y5N1 whole entry): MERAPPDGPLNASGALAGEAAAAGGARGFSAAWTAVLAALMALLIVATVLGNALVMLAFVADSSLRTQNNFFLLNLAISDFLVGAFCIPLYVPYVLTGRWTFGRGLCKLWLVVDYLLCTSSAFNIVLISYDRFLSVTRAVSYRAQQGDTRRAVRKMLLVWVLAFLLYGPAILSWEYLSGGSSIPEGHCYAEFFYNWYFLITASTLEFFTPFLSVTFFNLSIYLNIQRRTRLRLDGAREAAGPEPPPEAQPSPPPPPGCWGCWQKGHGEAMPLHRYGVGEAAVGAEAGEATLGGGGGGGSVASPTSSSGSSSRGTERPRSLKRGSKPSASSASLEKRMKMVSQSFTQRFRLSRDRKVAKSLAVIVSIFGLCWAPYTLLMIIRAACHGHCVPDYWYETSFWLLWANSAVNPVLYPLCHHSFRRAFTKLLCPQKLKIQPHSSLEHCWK

This test addresses T1, histamine-3 (H3) receptor (Homo sapiens, UniProt Q9Y5N1).
T1 construct: expressed in transfected cells; host or cells: HEK293T
The experiment in a line: Methyl Histamine Binding in Human Histamine-3 Receptor Cell Line. To be noted: membranes of stably transfected HEK293T cells, radioligand 1 nM, Ki from IC50 by Cheng-Prusoff. The method, then: Evaluation of Methyl Histamine Binding in Human Histamine-3 Receptor Cell Line
The affinity of test compounds for the histamine-3 (H3) receptor is evaluated in the following manner. Stably transfected HEK293T cells are grown in DMEM containing 10% heat inactivated FBS and G-418 (500 ug/ml). Cells are scraped from the plate, transferred to centrifuge tubes, washed one time in PBS by centrifugation in a Sorvall RT7 Plus centrifuge (2000 rpm 10 minutes, 4° C.). The resulting pellets are stored at 80° C. until ready for use. Cells are re-suspended in buffer (50 mM Tris pH=7.5) and placed in a Dounce homogenizer, douncing ten times to homogenize cells. The homogenate is spun down by centrifugation (Sorvall RT7 Plus, 1800 rpm 10 minutes, 4° C.). The supernatant is placed in a Corex tube and spun down by centrifugation (Sorvall RC 5c Plus, 17,000 rpm 20 minutes, 4° C.). The pellet is resuspended in buffer (50 mM Tris, pH 7.5). Protein concentration (ug/ul) is determined using the Micro-BCA Protein Determination. The binding assay is set up in a 96 well microtiter plate in a total volume of 250 uL. Non-specific binding is determined in the presence of 10 uM clobenpropit. The final radioligand concentration is 1 nM. The test compound is serially diluted using the Beckman Biomek2000 to a final approximate range of 100 uM to 100 pM. Membranes are suspended in buffer, homogenized in 2 bursts of ten seconds using a Vitris mechanical homogenizer set at power setting 5. Ten μg of membranes are added to each well. Following a one hour incubation at 30° C., the reaction is terminated by the addition of ice cold buffer and rapid filtration with a Packard Filtermate Harvester through a GF/B filter pre-soaked with 1% PEI for one hour. The plate is dried for one hour at 37° C. and 60 μL Microscint Scintillant is added to each well. The CPM per well is measured on a Packard Top Count NXT. Ki values are determined in nM. The Ki is calculated from the IC50 (i.e. the concentration of competing ligand which displaces 50% of the specific binding of the radioligand). CPM values are expressed as % specific binding and plotted vs compound concentration. A curve is fitted using a four-parameter logistic fit and the IC50 value is determined. The Ki is calculated from this using the Cheng-Prusoff equation: […]=IC50/1+(L/Kd) where L=concentration of free radioligand used in the assay, and Kd is the dissociation constant of the radioligand for the receptor. L is determined for each experiment by counting an aliquot of the diluted radioligand (corresponding to that added to each well) and the Kd has previously been determined under identical conditions for this cell line/radioligand.
What is called Ki is the dissociation constant of the complex between target and ligand, obtained from inhibition or displacement. Read a high Ki as a looser hold on the target. In turn, `CCN(C)Cc1coc(-c2ccc(-n3cnc4ccccc43)cc2)n1` [Example 39] had a Ki of 10.1 to 25 nM.

Regarding `c1ccc2c(c1)ncn2Cc1ccc(-c2nc(CN3CCCCC3)cs2)cc1` [Example 73, 1-{4-[4-(piperidin-1-ylmethyl)-1,3-thiazol-2-yl]benzyl}-1H-benzimidazole], the Ki is no more than 10 nM.

`CC1CCCN1Cc1csc(-c2ccc(Cn3cnc4ccccc43)cc2)n1` (stereo not drawn) [Example 72, 1-(4-{4-[(2-methylpyrrolidin-1-yl)methyl]-1,3-thiazol-2-yl}benzyl)-1H-benzimidazole] yielded an inhibition constant Ki of no more than 10 nM. Then `c1ccc2c(c1)ccn2Cc1ccc(-c2nc(CN3CCCC3)co2)cc1` [Example 81, 1-{4-[4-(pyrrolidin-1-ylmethyl)-1,3-oxazol-2-yl]benzyl}-1H-indole Hydrochloride], with 50.1 to 100 nM. Then `F[C@@H]1CCN(Cc2coc(-c3ccc(Cn4cnc5ccccc54)cc3)n2)C1` [Example 21, 1-[4-(4-{[(3R)-3-fluoropyrrolidin-1-yl]methyl}-1,3-oxazol-2-yl)benzyl]-1H-benzimidazole], with 10.1 to 25 nM; and `c1ccc(-c2nc3ccccc3n2Cc2ccc(-c3nc(CN4CCCCCC4)co3)cc2)cc1` [Example 121, 1-{4-[4-(azepan-1-ylmethyl)-1,3-oxazol-2-yl]benzyl}-2-phenyl-1H-benzimidazole], with 25.1 to 50 nM; and `CCN(CC)Cc1coc(-c2ccc(Cn3cnc4ccccc43)cc2)n1` [Example 12, N-({2-[4-(1H-benzimidazol-1-ylmethyl)phenyl]-1,3-oxazol-4-yl}methyl)-N-ethylethanamine], with no more than 10 nM. Then `CCN(C)Cc1cnc(-c2ccc(Cn3cnc4ccccc43)cc2)o1` [Example 112], with greater than 100 nM; and `CC1CCCCN1Cc1coc(-c2ccc(-n3cnc4ccccc43)cc2)n1` (stereo not drawn) [Example 45, 1-(4-{4-[(2-methylpiperidin-1-yl)methyl]-1,3-oxazol-2-yl}phenyl)-1H-benzimidazole], with no more than 10 nM; and `FC(F)(F)c1nc2ccccc2n1Cc1ccc(-c2nc(CN3CCCCC3)co2)cc1` [Example 122, 1-{4-[4-(piperidin-1-ylmethyl)-1,3-oxazol-2-yl]benzyl}-2-(trifluoromethyl)-1H-benzimidazole], with 10.1 to 25 nM. For `OC[C@@H]1CCCN1Cc1coc(-c2ccc(-n3cnc4ccccc43)cc2)n1` [Example 48, [(2S)-1-({2-[4-(1H-benzimidazol-1-yl)phenyl]-1,3-oxazol-4-yl}methyl)pyrrolidin-2-yl]methanol], the inhibitory constant (Ki) was no more than 10 nM. Then `Cn1c(Cc2ccc(-c3nc(CN4CCCC4)co3)cc2)nc2ccccc21` [Example 67, 1-Methyl-2-{4-[4-(pyrrolidin-1-ylmethyl)-1,3-oxazol-2-yl]benzyl}-1H-benzimidazole Fumarate], with no more than 10 nM; and `C[C@@H]1CCCN1Cc1cnc(-c2ccc(Cn3cnc4ccccc43)cc2)o1` [Example 108, 1-[4-(5-{[(2R)-2-methylpyrrolidin-1-yl]methyl}-1,3-oxazol-2-yl)benzyl]-1H-benzimidazole], with 25.1 to 50 nM; and `C[C@H]1CCCN1Cc1coc(-c2ccc(-c3nc4ccccc4n3CCC3CCCCC3)cc2)n1` [Example 61], with 25.1 to 50 nM. Then `c1ccc2c(c1)ncn2Cc1ccc(-c2nc(CN3CCCC3)co2)cc1` [Example 6B, 1-{4-[4-(Pyrrolidin-1-ylmethyl)-1,3-oxazol-2-yl]benzyl}-1H-benzimidazole Hydrochloride], with no more than 10 nM; and `c1ccc2c(c1)ncn2Cc1ccc(-c2nc(CN3CCOCC3)co2)cc1` [Example 10, 1-{4-[4-(morpholin-4-ylmethyl)-1,3-oxazol-2-yl]benzyl}-1H-benzimidazole], with greater than 100 nM; and `c1ccc2c(c1)ncn2-c1ccc(-c2nc(CN3CCOCC3)co2)cc1` [Example 40], with greater than 100 nM. Then `C[C@H]1CCCN1Cc1cnc(-c2ccc(Cn3cnc4ccccc43)cc2)n1C` [Example 140, (5)-1-(4-(1-methyl-5-((2-methylpyrrolidin-1-yl)methyl)-1H-imidazol-2-yl)benzyl)-1H-benzo[d]imidazole fumarate salt], with no more than 10 nM.
